“And” between values parts separate entries of the source, which are not always exact repeats. Identical values can stand only once. Marks after values point to notes of the source that are not given here.
Legend:
[1] = system: multiple human cancer xenograft models; assay: Xenograft panel, Example 3 (summary); type: in vivo, athymic nude mice; conditions: all xenograft models tested; oral 3.75, 7.5 or 15 mg/kg BID 2 consecutive days per week or 3 mg/kg BID everyday
Description: To investigate whether AMG 900-induced suppression of aurora kinase activity inhibits cell proliferation, the antiproliferative efficacy of AMG 900 was evaluated in-vivo in multiple human cancer xenograft models, including breast, colon, leukemia, lung, pancreatic, and uterine cancer models, grown in athymic nude mice. Mice were administered AMG 900 orally at 3.75, 7.5, or 15 mg/kg BID for 2 consecutive days per week or 3 mg/kg BID everyday for the duration of the study beginning when tumors were established. The reagents, solutions, equipment, formulation of AMG 900, tumor volume measurements and calculations were generally as described in Example 4 below.

769P = assay: Cellular EC50, additional cell lines (Table 6-B); type: cell-based; conditions: Homo sapiens, Kidney, P-gp+
Description: (§1) All high-content cell assays were performed on an ArrayScan VTi HCS Reader (Cellomics). Tumor cell lines were treated with AMG 900, AZD1152, MK-0457, or PHA-739358 (concentration range varied based on potency). The cells were prepared for intracellular staining with an anti-p-histone H3 Ser^10 antibody as previously described (1). Detection was performed with an anti-rabbit IgG-alexa-568 antibody and DAPI. The cellular levels of p-histone H3 were analyzed using Target Activation V2 algorithm (Cellomics) to determine the percentage of positive cells. For the imaging assays, the concentration-response curves and corresponding IC50 and EC50 values were calculated using the percentage of cells affected versus the DMSO control.
(§2) Tumor cells were treated with AMG 900, AZD1152, MK-0457, or PHA-739358 (range concentration varied based on potency) for 24 hours and processed for cell-cycle analysis (DNA staining only) as previously described (1). Cells were analyzed on a LSRII flow cytometer using BD FACS Diva software. The concentration-response curves and corresponding EC50 values were calculated using the percentage of cells with ≧4N DNA content versus the DMSO control.

SNU499 = assay: Cellular EC50, additional cell lines (Table 6-B); type: cell-based; conditions: Homo sapiens, Liver, P-gp+
Description: as §1, §2

[2] = system: NCI-H460-PTX (MDR) xenograft; assay: Xenograft tumor growth inhibition (Example 7); type: in vivo, mice; conditions: Lung, oral 15 mg/kg b.i.d. 2 consecutive days per week or 3 mg/kg b.i.d. every day, 3 weeks
Description: (§3) The in-vivo effect of AMG 900 on tumor growth was further evaluated in a panel of human xenografts from five different tumor types (breast, colon, lung, pancreatic, and uterine), including three MDR xenograft models. Mice bearing established tumors were orally administered AMG 900 at 15 mg/kg b.i.d. for 2 consecutive days per week for 3 weeks or at 3 mg/kg b.i.d. every day for 3 weeks. The maximum percentage of tumor growth inhibition (TGI) is reported, in Table 7 below, for each xenograft model. The percentage of TGI was calculated as the difference between the change in vehicle-treated control and AMG 900-treated tumor volumes during the study period.

COLO 205 xenograft = assay: Xenograft tumor growth inhibition (Example 7); type: in vivo, mice; conditions: COLO 205, Colon; oral 15 mg/kg b.i.d. 2 consecutive days per week or 3 mg/kg b.i.d. every day, 3 weeks
Description: as §3

EC50 (769P): 4 nM | EC50 (SNU499): 2 nM
Compound: Cc1csc(-c2nnc(Nc3ccc(Oc4ncccc4-c4ccnc(N)n4)cc3)c3ccccc23)c1 [AMG 900, N-(4-((3-(2-amino-4-pyrimidinyl)-2-pyridinyl)oxy)phenyl)-4-(4-methyl-2-thienyl)-1-phthalazinamine]
tumor growth vs vehicle control [1]: significantly inhibited tumor growth | Maximum TGI (%) [2]: 66% and 65** % | Maximum TGI (%) (COLO 205 xenograft): 73* %

Source: patent US20120028917A1, “Use Of N-(4-((3-(2-Amino-4-Pyrimidinyl)-2-Pyridinyl)Oxy)Phenyl)-4-(4-Methyl-2-Thienyl)-1-Phthalazinamine In The Treatment Of Antimitotic Agent Resistant Cancer” (Amgen Inc., priority 2009, published 2012)
